For 27 compounds, IC50 results are on record in US12577228B2, “Dihydrocyclopenta-isoquinoline-sulfonamide derivatives compounds” (UCB Biopharma SRL, priority 2019, dated 2026).

Where a name gives a salt, the structure may show the parent alone.

The test concerns the target T1, IgE-Tb / soluble IgE receptor FcεRIα with a Y131A mutation (Homo sapiens, UniProt P01854, N146Q/N252Q).
T1 construct: fused on or other part: Terbium chelate (LanthaScreen amine-reactive) on IgE-Fc; Alexa Fluor 488 hydrazide on the oxidised glycans of sFcεRIα; Both are labels and no part of the key
The test can be described thus: in vitro FRET assay: binding of IgE-Tb to receptor FcεRIα-Y131A-AF488 and its inhibition by compounds. To be noted: 5 nM IgE-Tb, 25 nM FcεRIα-Y131A-AF488, 2 hours at room temperature; read-out: FRET IC50 range.

T1 sequence (P01854 104-427 N146Q/N252Q): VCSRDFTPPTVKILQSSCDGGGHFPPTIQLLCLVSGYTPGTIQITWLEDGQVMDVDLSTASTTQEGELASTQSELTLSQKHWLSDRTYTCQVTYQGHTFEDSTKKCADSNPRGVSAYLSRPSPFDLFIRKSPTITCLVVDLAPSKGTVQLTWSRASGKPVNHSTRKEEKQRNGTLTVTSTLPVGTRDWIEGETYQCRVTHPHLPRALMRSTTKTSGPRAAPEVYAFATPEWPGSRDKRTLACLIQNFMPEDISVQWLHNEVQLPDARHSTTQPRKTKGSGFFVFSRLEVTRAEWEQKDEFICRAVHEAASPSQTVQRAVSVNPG
T1 sequence (P12319 26-201 Y156A partner): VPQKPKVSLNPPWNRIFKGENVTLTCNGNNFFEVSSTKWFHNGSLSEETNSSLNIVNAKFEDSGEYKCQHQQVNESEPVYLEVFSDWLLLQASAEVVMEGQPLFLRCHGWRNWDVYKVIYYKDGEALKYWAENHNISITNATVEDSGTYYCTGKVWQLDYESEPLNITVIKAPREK

As for `CC(C)(F)CNS(=O)(=O)c1c2c(cc3cnc(C4CC4)cc13)CC(Nc1cncc3[nH]ncc13)C2` (stereo not drawn) [Example 83, 3-cyclopropyl-N-(2-fluoro-2-methyl-propyl)-7-(1H-pyrazolo[3,4-c]pyridin-4-ylamino)-7,8-dihydro-6H-cyclopenta[g]isoquinoline-5-sulfonamide, formate salt], the IC50 was in the range of 10 to 50 nM.

Consider `Cn1ncc2c(NC3Cc4cc5cnc(C6CC6)cc5c(S(=O)(=O)NCC(C)(C)F)c4C3)cncc21` (stereo not drawn) [Example 84, 3-cyclopropyl-N-(2-fluoro-2-methylpropyl)-7-[(1-methylpyrazolo[3,4-c]pyridin-4-yl)amino]-7,8-dihydro-6H-cyclopenta[g]isoquinoline-5-sulfonamide], for which the IC50 lay within 10 to 50 nM.

Consider `CC(C)(C)OC(=O)c1ccc(N[C@@H]2Cc3cc4cnc(C5CC5)cc4c(S(=O)(=O)NC4CC(F)(F)C4)c3C2)cn1` [Example 85, tert-butyl 5-[[(7R)-3-cyclopropyl-5-[(3,3-difluorocyclobutyl)sulfamoyl]-7,8-dihydro-6H-cyclopenta[g]isoquinolin-7-yl]amino]pyridine-2-carboxylate], for which the IC50 lay within 10 to 50 nM.

Take `CC(C)(F)CNS(=O)(=O)c1c2c(cc3cnc(C4CC4)cc13)CC(Nc1cccnc1)C2` (stereo not drawn) [Example 86, 3-cyclopropyl-N-(2-fluoro-2-methylpropyl)-7-(pyridin-3-ylamino)-7,8-dihydro-6H-cyclopenta[g]isoquinoline-5-sulfonamide]: the IC50 lay within 10 to 50 nM.

On to `CC(C)(F)CNS(=O)(=O)c1c2c(cc3cnc(C4CC4)cc13)CC(NC(=O)Cc1ccccc1)C2` (stereo not drawn) [Example 87, N-[3-cyclopropyl-5-[(2-fluoro-2-methylpropyl)sulfamoyl]-7,8-dihydro-6H-cyclopenta[g]isoquinolin-7-yl]-2-phenylacetamide], for which the IC50 lay in the range of 50 to 100 nM.

Regarding `CC(C)CNS(=O)(=O)c1c2c(cc3cnc(C4CC4)cc13)CC(Nc1ccc(C(=O)O)nc1)C2` (stereo not drawn) [Example 88, 5-[[3-cyclopropyl-5-(isobutylsulfamoyl)-7,8-dihydro-6H-cyclopenta[g]isoquinolin-7-yl]amino]pyridine-2-carboxylic acid; hydrochloride], the IC50 was 50 to 100 nM.

For `O=C(O)c1ccc(NC2Cc3cc4cnc(C5CC5)cc4c(S(=O)(=O)NC4CC(F)(F)C4)c3C2)cn1` (stereo not drawn) [Example 89, 5-[[3-cyclopropyl-5-[(3,3-difluorocyclobutyl)sulfamoyl]-7,8-dihydro-6H-cyclopenta[g]isoquinolin-7-yl]amino]pyridine-2-carboxylic acid], the IC50 lay in the range of 100 to 2000 nM.

Take `CC(C)(F)CNS(=O)(=O)c1c2c(cc3cnc(C4CC4)cc13)C[C@H](n1cnc(C(N)=O)c1N)C2` [Example 90, 5-amino-1-[(7S)-3-cyclopropyl-5-[(2-fluoro-2-methylpropyl)sulfamoyl]-7,8-dihydro-6H-cyclopenta[g]isoquinolin-7-yl]imidazole-4-carboxamide]: the IC50 lay within 100 to 2000 nM.

Consider `CC(C)(F)CNS(=O)(=O)c1c2c(cc3cnc(C4CC4)cc13)CN(Cc1cccnc1)C2` [Example 91, 7-cyclopropyl-N-(2-fluoro-2-methyl-propyl)-2-(3-pyridylmethyl)-1,3-dihydropyrrolo[3,4-g]isoquinoline-9-sulfonamide; formic acid], for which the IC50 fell in the range of 100 to 2000 nM.

In the case of `Cc1nnc(-n2ccc(N[C@@H]3Cc4cc5cnc(C6CC6)cc5c(S(=O)(=O)NCC(C)(C)F)c4C3)cc2=O)o1` [Example 92, (7R)-3-cyclopropyl-N-(2-fluoro-2-methylpropyl)-7-[[1-(5-methyl-1,3,4-oxadiazol-2-yl)-2-oxopyridin-4-yl]amino]-7,8-dihydro-6H-cyclopenta[g]isoquinoline-5-sulfonamide], the IC50 is 10 to 50 nM.

With `CNS(=O)(=O)c1ccc(N[C@@H]2Cc3cc4cnc(C5CC5)cc4c(S(=O)(=O)NCC(C)(C)F)c3C2)cn1` [Example 93, (7R)-3-cyclopropyl-N-(2-fluoro-2-methylpropyl)-7-[[6-(methylsulfamoyl)pyridin-3-yl]amino]-7,8-dihydro-6H-cyclopenta[g]isoquinoline-5-sulfonamide], the IC50 is 10 to 50 nM.

Take `NC(=O)c1ccc(N[C@@H]2Cc3cc4cnc(C5CC5)cc4c(S(=O)(=O)NC4CC(F)(F)C4)c3C2)nn1` [Example 94, 6-[[(7R)-3-cyclopropyl-5-[(3,3-difluorocyclobutyl)sulfamoyl]-7,8-dihydro-6H-cyclopenta[g]isoquinolin-7-yl]amino]pyridazine-3-carboxamide]: the IC50 lay within 10 to 50 nM.

As for `CC(=O)NS(=O)(=O)c1ccc(N[C@@H]2Cc3cc4cnc(C5CC5)cc4c(S(=O)(=O)NCC(C)(C)F)c3C2)cn1` [Example 95, N-[5-[[(7R)-3-cyclopropyl-5-[(2-fluoro-2-methylpropyl)sulfamoyl]-7,8-dihydro-6H-cyclopenta[g]isoquinolin-7-yl]amino]pyridin-2-yl]sulfonylacetamide], the IC50 is 50 to 100 nM.

As for `Cn1ccc(NC2Cc3cc4cnc(C5CC5)cc4c(S(=O)(=O)NCC(C)(C)F)c3C2)cc1=O` (stereo not drawn) [Example 96, 3-cyclopropyl-N-(2-fluoro-2-methyl-propyl)-7-[(1-methyl-2-oxo-4-pyridyl)amino]-7,8-dihydro-6H-cyclopenta[g]isoquinoline-5-sulfonamide; formate salt], the IC50 fell in the range of 10 to 50 nM.

Turning to `Cc1nnc(NC2Cc3cc4cnc(C5CC5)cc4c(S(=O)(=O)NCC(C)(C)F)c3C2)o1` (stereo not drawn) [Example 97, 3-cyclopropyl-N-(2-fluoro-2-methylpropyl)-7-[(5-methyl-1,3,4-oxadiazol-2-yl)amino]-7,8-dihydro-6H-cyclopenta[g]isoquinoline-5-sulfonamide], the IC50 lay in the range of 100 to 2000 nM.

As to `CC(C)(F)CNS(=O)(=O)c1c2c(cc3cnc(C4CC4)cc13)CC(NC1=CC(=O)C1(C)C)C2` (stereo not drawn) [Example 98, 3-cyclopropyl-7-[(4,4-dimethyl-3-oxocyclobuten-1-yl)amino]-N-(2-fluoro-2-methylpropyl)-7,8-dihydro-6H-cyclopenta[g]isoquinoline-5-sulfonamide], the half-maximal inhibitory concentration (IC50) was in the range of 100 to 2000 nM.

`CC(C)CNS(=O)(=O)N1Cc2cc3cnc(C4CC4)cc3c(S(=O)(=O)NCC(C)(C)F)c2C1` [Example 99, 7-cyclopropyl-9-N-(2-fluoro-2-methylpropyl)-2-N-(2-methylpropyl)-1,3-dihydropyrrolo[3,4-g]isoquinoline-2,9-disulfonamide]: the IC50 was 100 to 2000 nM.

Take `CCNC(=O)N1Cc2cc3cnc(C4CC4)cc3c(S(=O)(=O)NCC(C)C)c2C1` [Example 100, 7-cyclopropyl-N-ethyl-9-(2-methylpropylsulfamoyl)-1,3-dihydropyrrolo[3,4-g]isoquinoline-2-carboxamide]: the IC50 lay within 100 to 2000 nM.

Turning to `CC(C)(F)CNS(=O)(=O)c1c2c(cc3cnc(C4CC4)cc13)CN(Cc1ccn[nH]1)C2` [Example 102, 7-cyclopropyl-N-(2-fluoro-2-methylpropyl)-2-(1H-pyrazol-5-ylmethyl)-1,3-dihydropyrrolo[3,4-g]isoquinoline-9-sulfonamide], the IC50 is 100 to 2000 nM.

As to `CC(C)CNS(=O)(=O)c1c2c(cc3cnc(C4CC4)cc13)CC(Nc1ccnnc1)C2` (stereo not drawn) [Example 103, 3-cyclopropyl-N-isobutyl-7-(pyridazin-4-ylamino)-7,8-dihydro-6H-cyclopenta[g]isoquinoline-5-sulfonamide; formic acid], the IC50 lay in the range of 10 to 50 nM.

For the compound `Cn1nccc1C(=O)NC1Cc2cc3cnc(C4CC4)cc3c(S(=O)(=O)NCC(C)(C)F)c2C1` (stereo not drawn) [Example 104, N-[3-cyclopropyl-5-[(2-fluoro-2-methylpropyl)sulfamoyl]-7,8-dihydro-6H-cyclopenta[g]isoquinolin-7-yl]-2-methylpyrazole-3-carboxamide], the IC50 fell in the range of 50 to 100 nM.

For `CC(C)(F)CNS(=O)(=O)c1c2c(cc3cnc(C4CC4)cc13)C[C@@H](Nc1cncc3nn(CCO)cc13)C2` [Example 106, (7R)-3-cyclopropyl-N-(2-fluoro-2-methylpropyl)-7-[[2-(2-hydroxyethyl)pyrazolo[3,4-c]pyridin-4-yl]amino]-7,8-dihydro-6H-cyclopenta[g]isoquinoline-5-sulfonamide], the IC50 fell in the range of 10 to 50 nM.

`CC(C)(F)CNS(=O)(=O)c1c2c(cc3cnc(C4CC4)cc13)CC1CC21` (stereo not drawn) [Example 107, 13-cyclopropyl-N-(2-fluoro-2-methylpropyl)-12-azatetracyclo[8.4.0.03,8.04,6]tetradeca-1 (10),2,8,11,13-pentaene-2-sulfonamide]: the IC50 lay within 100 to 2000 nM.

As for `Cn1ccc(-c2ccc(N[C@@H]3Cc4cc5cnc(C6CC6)cc5c(S(=O)(=O)NCC(C)(C)F)c4C3)cn2)n1` [Example 108, (7R)-3-cyclopropyl-N-(2-fluoro-2-methylpropyl)-7-[[6-(1-methylpyrazol-3-yl)pyridin-3-yl]amino]-7,8-dihydro-6H-cyclopenta[g]isoquinoline-5-sulfonamide], the IC50 was in the range of 10 to 50 nM.

With `CC(C)(F)CNS(=O)(=O)c1c2c(cc3cnc(C4CC4)cc13)CC(Nc1cncc3nccn13)C2` (stereo not drawn) [Example 109, 3-cyclopropyl-N-(2-fluoro-2-methylpropyl)-7-(imidazo[1,2-a]pyrazin-5-ylamino)-7,8-dihydro-6H-cyclopenta[g]isoquinoline-5-sulfonamide], the IC50 was 10 to 50 nM.

For the compound `CC(C)(F)CNS(=O)(=O)c1c2c(cc3cnc(C4CC4)cc13)CC(c1cccnc1)C2` (stereo not drawn) [Example 110, 3-cyclopropyl-N-(2-fluoro-2-methylpropyl)-7-pyridin-3-yl-7,8-dihydro-6H-cyclopenta[g]isoquinoline-5-sulfonamide], the IC50 lay within 100 to 2000 nM.

As for `O=c1cc(C2Cc3cc4cnc(C5CC5)cc4c(S(=O)(=O)NC4CC(F)(F)C4)c3C2)[nH]n1-c1cccnc1` (stereo not drawn) [Example 111, 3-cyclopropyl-N-(3,3-difluorocyclobutyl)-7-(3-oxo-2-pyridin-3-yl-1H-pyrazol-5-yl)-7,8-dihydro-6H-cyclopenta[g]isoquinoline-5-sulfonamide], the IC50 was in the range of 100 to 2000 nM.
